# Source: article PMC10721898, “C5 methylation confers accessibility, stability and selectivity to picrotoxinin” (Nature Communications, 2023)
# Entries after “also recorded” stand apart in the source; their conditions may differ.
# Tests used:
# [1] = Degradation in dilute sulfuric acid; assay type: physicochemical; settings: for stability to acid: 1 mol % H2SO4 (Fig. 1b); for degradation in acid: warming, 1% H2SO4, 0.18 M, aqueous
# [2] = Stability in mouse plasma; assay type: in vitro ADME; settings: for T½ in mouse plasma / half-life at 2 µM: 37 °C, incubation to 120 min, extrapolated half-life, n = 2; for half-life at 2 µM / remaining at 0 h, 2 µM / remaining at 10 min, 2 µM / remaining at 0.5 h, 2 µM / remaining at 1 h, 2 µM / remaining at 2 h, 2 µM: male, CD-1, mouse, plasma; for half-life at 2 µM: read-out: T½ in mouse plasma; for remaining at 0 h, 2 µM: 0 min; for remaining at 0.5 h, 2 µM: 30 min; for remaining at 1 h, 2 µM: 60 min; for remaining at 2 h, 2 µM: 120 min
# Source text: We investigated the relative rates of esterase-mediated hydrolysis[17] observed in mouse and human plasma, to evaluate potential for future translational applications. […] Due to the high stability of the C15 lactone, identified above, combined with the kinetic lability and reversible opening of the C11 lactone identified previously, enzymatic degradation in serum likely reflects a combination of reversible C11 hydrolysis[38] (unaffected by C5 methylation) and irreversible C15 hydrolysis (obstructed by C5 methylation)[17]. No prior studies have identified PXN modifications that enhance metabolic stability, partly due to the difficulty of synthetic modification and partly due to the prior incorrect assignment of the site of kinetic hydrolysis (C11 vs. C15)[38].
# Test compound working solution: 5 μL of tested compound stock solution (10 mM in DMSO) were diluted with 495 μL of DMSO (concentration: 100 μM, 100% DMSO). Propantheline bromide working solution: 5 μL of propantheline bromide stock solution (10 mM in DMSO) were diluted with 495 μL of H2O (concentration: 100 […]
# Supplementary Table 6. Test system.
# Species/ Matrix Minimum No. of Anticoagulant Vendor
# CD-1 Mouse 20 Male EDTA-K2 Beijing Vital River Laboratory
# Human Plasma 3 Male & 3 Female EDTA-K2 BioreclamationIVT
# The pooled frozen plasma was thawed in a water bath at 37 °C prior to experiment. Plasma was centrifuged at 1968 g (4000 rpm) for 5 min and the clots were removed. Using an Apricot automation work station, 98 μL/well of blank plasma were added to all 96-well reaction plates. (Blank, T0, T10, T30, T60 and T120) . An Apricot automation workstation was used to add 2 μL/well of working solution (100 μM) to all reaction plates except Blank. (T0, T10, T30, T60 and T120) . All reaction plates containing mix tures of compound a nd plasma were incubated at 37 °C in water bath. The reaction plates were incubated at 37 °C, and timer was started. At the end of incubation, 400 μL of stock solution was added (200 ng/mL tolbutamide and 200 ng/mL labetalol in MeCN) to precipitate protein and mixed thoroughly. Each plate was sealed and shaken for 20 minutes, then centrifuged at 1968 g (4000 rpm) and 4 °C for 20 minutes. After centrifugation, an Apricot automation workstation was used to transfer 150 μL supernatant. Each bioanalysis plate was sealed and shaken for 10 minutes prior to LC -MS/MS […]
# The % remaining of test compound after incubation in plasma was calculated using following equation:
# % Remaining= 100 x (PAR at appointed incubation time / PAR at T0 time) where PAR is the peak area ratio of analyte versus internal standard (IS) The appointed incubation time points are T0 (0 min), Tn (n=0, 10, 30, 60, 120 min)
# Supplementary Table 7. %Remaining of test compound in two plasmas.
# Compound Time point (min) % Remaining T½ (min)
# [3] = D2O, 8.2 pH*; previously observed; cited from earlier work
# [4] = Methanolysis with NaOMe in d4-methanol (1H NMR monitoring); assay type: physicochemical; settings: for stability to catalytic NaOMe: 5 mol % NaOMe, 22 °C; for stability to catalytic NaOMe / competition experiment, 1:1 mixture of PXN and 5MePXN: d4-methanol; for concentration in competitive methanolysis: 5 mol% NaOMe in CD3OD; for competition experiment, 1:1 mixture of PXN and 5MePXN: 5 mol% NaOMe
# Source text: Even addition of 2 equivalents NaOMe had no effect on 5MePXN (Fig. 3b and SI), far exceeding the tolerance of PXN. Thus, C5 methylation stabilized PXN against buffered water hydrolysis, acidic hydrolysis and alkaline methanolysis (Fig. 3a–d, see also ref. [21]). This profound stabilization highlighted the unique effects to reactivity imparted by C5 methylation. Furthermore, it opened a window into understanding differences in blood degradation of 5MePXN.
# Supplementary Figure 4. Competitive methanolysis of PXN and 5MePXN under 5 mol% NaOMe in CD3OD.
# (a) 0 min, (b) 10 min, (c) 30 min, (d) 60 min, (e) 100 min, (f) 140 min, (g) 280 min.
# Supplementary Table 5. Concentration of each component in competitive methanolysis. […]
# Supplementary Figure 5. Concentration of PXN, d5-33, d9-34 and 5MePXN vs. time (min) 3.4 Methanolysis of 5MePXN under different equivalent of NaOMe in CD3OD To a solution of 5MePXN (2.5 mg, 0.0082 mmol ) in CD 3OD (0.4 mL) in 5 mm NMR tube was added a solution of NaOMe in CD3OD (0.1, 0.2, 0.5, 0.8, 1.0, 1.5 and 2.0 equiv) at room temperature. The NMR tube was shaken bottom up 5 times to make solution homogenous, then measured by 1H NMR.
structure (smiles),measurement,setting,value
"C=C(C)C1C2OC(=O)C1(C)C1(O)CC3OC34C(=O)OC2C41C (stereo not drawn) [5MePXN, 5-methylpicrotoxinin]",stability to acid,[1],stable
same,degradation in acid,[1],did not react at all
same,"increase of extrapolated half-life by C5 methylation, mouse plasma",[2]; 5MePXN vs. PXN,2.1 X
same,T½ in mouse plasma,[2],3.45 h
same,half-life at 2 µM,[2],3.45 h
same,"remaining at 0 h, 2 µM",[2],100%
same,"remaining at 10 min, 2 µM",[2],97.9%
same,"remaining at 0.5 h, 2 µM",[2],87.9%
same,"remaining at 1 h, 2 µM",[2],75.7%
same,"remaining at 2 h, 2 µM",[2],68%
same,t1/2 of degradation (pseudo-first order),[3],120 h
same,stability to catalytic NaOMe,[4],did not observe any consumption
same,concentration in competitive methanolysis,[4]; 0 min,3268 µM
same,concentration in competitive methanolysis,[4]; 5 min,3268 µM
same,concentration in competitive methanolysis,[4]; 10 min,3268 µM
same,concentration in competitive methanolysis,[4]; 15 min,3268 µM
same,concentration in competitive methanolysis,[4]; 20 min,3268 µM
same,concentration in competitive methanolysis,[4]; 25 min,3268 µM
same,concentration in competitive methanolysis,[4]; 30 min,3268 µM
same,concentration in competitive methanolysis,[4]; 35 min,3268 µM
same,concentration in competitive methanolysis,[4]; 40 min,3268 µM
same,concentration in competitive methanolysis,[4]; 45 min,3268 µM
same,concentration in competitive methanolysis,[4]; 50 min,3268 µM
same,concentration in competitive methanolysis,[4]; 55 min,3268 µM
same,concentration in competitive methanolysis,[4]; 60 min,3268 µM
same,concentration in competitive methanolysis,[4]; 65 min,3268 µM
same,concentration in competitive methanolysis,[4]; 70 min,3268 µM
same,concentration in competitive methanolysis,[4]; 75 min,3268 µM
same,concentration in competitive methanolysis,[4]; 80 min,3268 µM
same,concentration in competitive methanolysis,[4]; 85 min,3268 µM
same,concentration in competitive methanolysis,[4]; 90 min,3268 µM
same,concentration in competitive methanolysis,[4]; 95 min,3268 µM
same,concentration in competitive methanolysis,[4]; 100 min,3268 µM
same,concentration in competitive methanolysis,[4]; 110 min,3268 µM
same,concentration in competitive methanolysis,[4]; 120 min,3268 µM
same,concentration in competitive methanolysis,[4]; 130 min,3268 µM
same,concentration in competitive methanolysis,[4]; 140 min,3268 µM
same,concentration in competitive methanolysis,[4]; 280 min,3268 µM
same,"competition experiment, 1:1 mixture of PXN and 5MePXN",[4],completely persisted
same,stability to excess NaOMe,[4]; 200 mol % (2 equivalents) NaOMe,had no effect; also recorded: stable
"C=C(C)[C@@H]1[C@H]2OC(=O)[C@@H]1[C@]1(O)C[C@H]3O[C@]34C(=O)O[C@H]2[C@]14C [PXN, picrotoxinin]",stability to acid,[1],unstable
same,degradation in acid,[1],clean conversion to picrotoxic acid (32) in 24 h
same,T½ in mouse plasma,[2],1.62 h
same,half-life at 2 µM,[2],1.62 h
same,"remaining at 0 h, 2 µM",[2],100%
same,"remaining at 10 min, 2 µM",[2],102%
same,"remaining at 0.5 h, 2 µM",[2],87.1%
same,"remaining at 1 h, 2 µM",[2],67.4%
same,"remaining at 2 h, 2 µM",[2],44.7%
same,t1/2 of degradation (pseudo-first order),[3],60 h
same,stability to catalytic NaOMe,[4],equimolar mixture of d5-methyl picrotoxate (d5-33) and d9-dimethyl picrotoxinin dicarboxylate (d9-34) in 6 h; also recorded: unstable
same,concentration in competitive methanolysis,[4]; 0 min,3424.6 µM
same,concentration in competitive methanolysis,[4]; 5 min,2952 µM
same,concentration in competitive methanolysis,[4]; 10 min,2500 µM
same,concentration in competitive methanolysis,[4]; 15 min,2181 µM
same,concentration in competitive methanolysis,[4]; 20 min,1935 µM
same,concentration in competitive methanolysis,[4]; 25 min,1679 µM
same,concentration in competitive methanolysis,[4]; 30 min,1564 µM
same,concentration in competitive methanolysis,[4]; 35 min,1495 µM
same,concentration in competitive methanolysis,[4]; 40 min,1464 µM
same,concentration in competitive methanolysis,[4]; 45 min,1375 µM
same,concentration in competitive methanolysis,[4]; 50 min,1307 µM
same,concentration in competitive methanolysis,[4]; 55 min,1223 µM
same,concentration in competitive methanolysis,[4]; 60 min,1119 µM
same,concentration in competitive methanolysis,[4]; 65 min,1044 µM
same,concentration in competitive methanolysis,[4]; 70 min,962 µM
same,concentration in competitive methanolysis,[4]; 75 min,925.6 µM
same,concentration in competitive methanolysis,[4]; 80 min,856.1 µM
same,concentration in competitive methanolysis,[4]; 85 min,800.1 µM
same,concentration in competitive methanolysis,[4]; 90 min,773 µM
same,concentration in competitive methanolysis,[4]; 95 min,730.2 µM
same,concentration in competitive methanolysis,[4]; 100 min,704.7 µM
same,concentration in competitive methanolysis,[4]; 110 min,611.5 µM
same,concentration in competitive methanolysis,[4]; 120 min,560.5 µM
same,concentration in competitive methanolysis,[4]; 130 min,515 µM
same,concentration in competitive methanolysis,[4]; 140 min,466.6 µM
same,concentration in competitive methanolysis,[4]; 280 min,215.8 µM
same,"competition experiment, 1:1 mixture of PXN and 5MePXN",[4],completely degraded
